Experimental findings from PMC8226862, “Design, Synthesis and Anticancer Activity of a New Series of N-aryl-N′-[4-(pyridin-2-ylmethoxy)benzyl]urea Derivatives” (Molecules, 2021) are described below.

A value given as a limit tells only on which side of the number the result lay.

As a reminder, the IC50 is the concentration at which inhibition is half-maximal. Low readings indicate higher potency, high ones lower potency. The term melting point denotes the temperature, or range, at which the solid turns liquid.

Data set [1] relates to A549 (non-small cell lung cancer cell line). Kind of data set: MTT antiproliferative assay, A549. Format: cell-based, human. The conditions noted are these: 96 h incubation. As for the experimental part:
(§1) The target compounds were evaluated for their antiproliferative activity against different human cancer cell lines, including A549 (non-small cell lung cancer cell line), MCF-7 (breast cancer cell line), HCT116 (colon cancer cell line), PC-3 (prostate cancer cell line) and HL7702 (human liver normal cell line) by using the MTT assay with sorafenib as the control drug.
(§2) The antiproliferative activities of target compounds were determined using a standard MTT assay. Exponentially growing cells A549 (1.5 × 10^3 cells/well), MCF-7 (2.2 × 10^3 cells/well), HCT-116 (800 cells/well), PC-3 (2.0 × 10^3 cells/well) and HL7702 (5.0 × 10^3 cells/well) were seeded into 96-well plates and incubated for 24 h to allow the cells to attach. Then, a fresh medium containing various concentrations of the candidate compounds was added to each well. The cells were then incubated for 96 h, thereafter MTT assays were performed, and cell viability was assessed at 570 nm by a microplate reader (ThermoFisher Scientific (Shanghai) Instrument Co., Ltd., Shanghai, China). The optical densities (OD) at 570 nm were measured, and the IC50 of the target compounds was calculated by using GraphPad Prism 5.0 software to perform nonlinear fitting with the cell survival rate under different concentrations of the compounds.
(In general: Formazan colour is commonly taken as a measure of viable cells.)

The subject of data set [2] is MCF-7 (breast cancer cell line). Kind of data set: MTT antiproliferative assay, MCF7. Format: cell-based, human. The following applies: 96 h incubation. As for the experimental part:
as §1, §2

Data set [3] relates to HCT116 (colon cancer cell line). Nature of the data set: MTT antiproliferative assay, HCT116. The data set is classed as cell-based, human. The conditions noted are these: 96 h incubation. As for the experimental part: as §1, §2
For data set [4], the system named is PC-3 (prostate cancer cell line). Nature of the data set: MTT antiproliferative assay, PC3. The conditions noted are these: 96 h incubation. The data set is classed as cell-based, human. As for the experimental part:
as §1, §2

Data set [5] concerns HL7702 (human liver normal cell line). Kind of data set: MTT cytotoxicity assay, HL7702. The data set is classed as cell-based. The following applies: L02, HL7702 normal liver cells, 96 h incubation. As for the experimental part: as §1, §2
For the next data set, the system named is MCF-7 cells. Nature of the data set: Cell cycle analysis by flow cytometry (PI staining). Format: cell-based, human. The conditions noted are these: for percentage of cells in the G2/M phase: 72 h. As for the experimental part:
The effect of compound 9b on the cell cycle was assayed.
[…] After an incubation period, the cells were collected, centrifuged, and fixed with ice-cold ethanol (70%). The cells were then treated with buffer containing RNAse A and 0.1% Triton X-100 and then stained with the propidium iodide (PI). The samples were analyzed on a flow cytometer (Becton, Dickinson, Franklin Lakes, NJ, USA). Data were analyzed using Flowjo software v9.0.
For orientation: In flow cytometry, cells or beads pass a laser one at a time.

Regarding `COc1cc(CN(C(=O)Nc2ccc(C(F)(F)F)cc2)C2CCN(C)CC2)ccc1OCc1nccc(OCC(F)(F)F)c1C` [9b, 1-(3-methoxy-4-((3-methyl-4-(2,2,2-trifluoroethoxy)pyridin-2-yl)methoxy)benzyl)-1-(1-methylpiperidin-4-yl)-3-(4-(trifluoromethyl)phenyl)urea], the melting point lay within 138.4 to 140.5 °C. This molecule gave a half-maximal inhibitory concentration (IC50) in data set [1] of 4.93 ± 0.46 µM. In addition, the half-maximal inhibitory concentration (IC50) in data set [1] (Homo sapiens, A549, 96 h) is below 5 µM. The same molecule displayed an IC50 in data set [2] of 2.56 ± 0.07 µM. The IC50 in data set [2] (Homo sapiens, MCF7, 96 h) was below 3 µM. The same molecule came in with an IC50 in data set [3] of 2.9 ± 0.16 µM. This molecule displayed a half-maximal inhibitory concentration (IC50) in data set [3] (Homo sapiens, HCT-116, 96 h) below 3 µM. The molecule further showed an IC50 in data set [4] of 3.36 ± 0.17 µM. Also, the IC50 in data set [4] (Homo sapiens, 96 h) was below 5 µM. In addition, the 50% inhibitory concentration (IC50) in data set [5] was above 50 µM. In the data set with MCF-7 cells (MCF-7, 2.5 μM), the “percentage of cells in the G2/M phase” value was 16.7%. For the same molecule, the “percentage of cells in the G2/M phase” value in the data set with MCF-7 cells (MCF-7, 5 μM) was 23.5%. Moreover, the “percentage of cells in the G2/M phase” value in the data set on MCF-7 cells (MCF-7, 10 μM) turned out to be 27.7%. The “percentage of cells in the G2/M phase” value with MCF-7 cells (MCF-7, 20 μM) is 39.3%. In addition, the “effect on the cell cycle” value in the data set with MCF-7 cells (MCF-7, 2.5-20 μM, concentration-dependent) is listed as “obvious G2/M arrest”.

For `COc1cc(CN(C(=O)Nc2ccc(OC(F)(F)F)cc2)C2CCN(C)CC2)ccc1OCc1nccc(OCC(F)(F)F)c1C` [9a, 1-(3-methoxy-4-((3-methyl-4-(2,2,2-trifluoroethoxy)pyridin-2-yl)methoxy)benzyl)-1-(1-methylpiperidin-4-yl)-3-(4-(trifluoromethoxy)phenyl)urea], the melting point is 127.3 to 129.4 °C. The molecule further returned an IC50 in data set [1] (Homo sapiens, A549, 96 h) of 17.5 ± 2.95 µM. The same molecule had an IC50 in data set [2] of 2.59 ± 0.29 µM. Besides, the IC50 in data set [2] (Homo sapiens, MCF7, 96 h) is below 3 µM. The midpoint of inhibition in data set [3] (Homo sapiens, HCT-116, 96 h), the IC50, lay at 4.41 ± 0.14 µM. This molecule also showed a half-inhibitory concentration (IC50) in data set [4] of 4.1 ± 0.19 µM. Besides, in data set [4] (Homo sapiens, 96 h), the IC50 is below 5 µM. Also, the IC50 in data set [5] was above 50 µM.

With `COc1ccc(CNC(=O)NCc2ccc(OCc3nccc(OCC(F)(F)F)c3C)c(OC)c2)cc1` [8g, 1-(3-methoxy-4-((3-methyl-4-(2,2,2-trifluoroethoxy)pyridin-2-yl)methoxy)benzyl)-3-(4-methoxybenzyl)urea], the melting point lay in the range of 153 to 154.2 °C. For the same molecule, the IC50 in data set [1] (Homo sapiens, A549, 96 h) is above 50 µM. Also, the IC50 in data set [2] (Homo sapiens, MCF7, 96 h) is above 50 µM. In data set [3] (Homo sapiens, HCT-116, 96 h), this molecule showed an IC50 of 7.84 ± 1.4 µM. For the same molecule, the IC50 in data set [4] (Homo sapiens, 96 h) is above 50 µM. For the same molecule, in data set [5], the IC50 was above 50 µM.

In turn, `CCOc1ccc(CNC(=O)NCc2ccc(OCc3nccc(OCC(F)(F)F)c3C)c(OC)c2)cc1` [8h, 1-(4-ethoxybenzyl)-3-(3-methoxy-4-((3-methyl-4-(2,2,2-trifluoroethoxy)pyridin-2-yl)methoxy)benzyl)urea] returned a melting point of 148.9 to 149.9 °C. The molecule also yielded an IC50 in data set [1] (Homo sapiens, A549, 96 h) of 10.9 ± 2.02 µM. The molecule further yielded an IC50 in data set [2] (Homo sapiens, MCF7, 96 h) above 50 µM. The molecule also showed an IC50 in data set [3] (Homo sapiens, HCT-116, 96 h) of 23.3 ± 3.12 µM. Further, the IC50 in data set [4] (Homo sapiens, 96 h) was above 50 µM. In addition, the IC50 in data set [5] was above 50 µM.
